Here are results for 5 molecules from patent publication US9568467B2, “Inhibitors of micro-RNAs for use for preventing and/or attenuating skin ageing” (CHANEL PARFUMS BEAUTE, priority 2012, dated 2017).

Holding throughout (format): cell-based
Data set [1] has as its system miR-152. As to the kind of experiment: Relative quantification of miR-152 level by Real Time PCR in treated or transfected fibroblasts. The conditions noted are these: primary human fibroblasts, 48 hours treatment, concentration indicated in FIG. 13 (not given); control = 1.00±0.01. Here is the method: (§1) Neonatal Human Primary Dermal Fibroblasts (HDFn, Cascade, Invitrogen, Carlsbad, Calif., USA) were cultured in 106 medium added with LSGS growth supplements (Cascade). Cells were passaged usually once a week, at each passage the harvested cells number and seeded cell number were recorded in order to calculate the population doublings occurring between passages and the population doubling time. At each passage different aliquots of the cells were harvested to extract in triplicate RNA and proteins and an aliquot was submitted to senescence activated β-galactosidase staining in order to assay the senescent or non-senescent state of the cells. […]
(§2) Total RNA from cells was isolated using mirVana mirRNA Isolation Kit (Ambion) by following the manufacturer's protocol for total RNA extraction. Total RNA was quantified using a NanoDrop Spectophotometer (Thermo Scientific, Delaware, USA) and RNA quality was controlled on an agarose gel. […] The expression of each gene and miR was defined from the threshold cycle (Ct), and relative expression levels were calculated by using the 2-ΔΔCt method after normalization with reference to the expression of the housekeeping gene U18.
For orientation: Quantitative PCR measures a nucleic acid by following its amplification.

Data set [2] has as its system miR-134. In words: Relative quantification of miR-134 level by Real Time PCR in treated or transfected fibroblasts. Conditions: primary human fibroblasts, 48 hours treatment, concentration indicated in FIG. 12 (not given); control = 1.00±0.01. The method, then:
as §1, §2

Data set [3] deals with primary human fibroblasts. In words: Cell proliferation, BrdU pulse and flow cytometry after transfection. Conditions: 96 hours after transfection, 3 h BrdU pulse; negative control 26%. The method, then:
(§3) Neonatal Human Primary Dermal Fibroblasts (HDFn, Cascade, Invitrogen, Carlsbad, Calif., USA) were cultured in 106 medium added with LSGS growth supplements (Cascade). Cells were passaged usually once a week, at each passage the harvested cells number and seeded cell number were recorded in order to calculate the population doublings occurring between passages and the population doubling time. At each passage different aliquots of the cells were harvested to extract in triplicate RNA and proteins and an aliquot was submitted to senescence activated β-galactosidase staining in order to assay the senescent or non-senescent state of the cells.
(§4) Human primary fibroblasts were transfected with human pre-miR 134, anti-miR-134, pre-miR-152, anti-miR-152 and scramble sequence as negative control (Ambion, Tex., USA) using the Lipofecatmine RNAimax transfection reagent (Invitrogen) according to manufacturer protocols. 24 hrs after transfection, the medium was removed and replaced with fresh medium.
Methods used to evaluate cell proliferation are generally based on incorporation of thymidine analogues such as 3H thymidine or bromodeoxyuridine (BrdU) during DNA synthesis. […] Cell cycle was analysed using a FACS Calibur flow cytometer (BD Biosciences, San Jose, Calif., USA). Fifteen thousand events were evaluated using the Cell Quest (BD) and Modfit LT (Verity Software; BD) programs.

In data set [4] the test system is ITGA9 mRNA. As to the kind of experiment: Relative quantification of ITGA9 mRNA level by Real Time PCR after transfection. Conditions: human dermal fibroblasts, 96 hours after transfection. Here is the method:
as §1, §2

In data set [5] the test system is ITGA5 mRNA. As to the kind of experiment: Relative quantification of ITGA5 mRNA level by Real Time PCR after transfection. Conditions: human dermal fibroblasts, 96 hours after transfection. The method, then:
as §1, §2

Data set [6] deals with ITGA5. In words: Western blot of ITGA5 protein level after transfection. Conditions: human fibroblasts after transfection; β-Actin loading control. The method, then:
as §3, §4
Total cell extracts were resolved on a SDS polyacrylamide gel, blotted on a Hybond P PVDF membrane (G&E Healthcare, UK). […]
(In general: Immunoblotting shows a protein as a band on a membrane.)

Consider `O.Oc1cc(O)c2c(c1)O[C@H](c1ccc(O)c(O)c1)[C@@H](O)C2` [Compound 2, Catechine Hydrate], for which the “expression of miR-152 in treated cells (relative quantification)” value in data set [1] is listed as 0.769±0.03.

Take `O=C(O[C@@H]1Cc2c(O)cc(O)cc2O[C@@H]1c1cc(O)c(O)c(O)c1)c1cc(O)c(O)c(O)c1` [Compound 4, Epigallocatechine Gallate]: in data set [2], the “expression of miR-134 in treated cells (relative quantification)” value amounted to 0.603±0.03. Besides, the “expression of miR-152 in treated cells (relative quantification)” value in data set [1] worked out at 0.804±0.05.

Take `C[C@@H]1O[C@@H](O[C@@H]2[C@@H](O)[C@H](OCCc3ccc(O)c(O)c3)O[C@H](CO)[C@H]2OC(=O)/C=C/c2ccc(O)c(O)c2)[C@H](O)[C@H](O)[C@H]1O` [Compound 5, Verbascoside]: the “expression of miR-134 in treated cells (relative quantification)” value in data set [2] was 0.734±0.05.

Consider “miR-134: human pre-miR 134 (Ambion) transfected into fibroblasts; mature miR-134 SEQ ID No. 1 ugugacugguugaccagagggg (UGUGACUGGUUGACCAGAGGGG; delivered as commercial pre-miR precursor, further chemistry not given here; listed as Homo sapiens)”, for which, in data set [3], the “percentage of BrdU positive primary human fibroblasts” value was 19%. In addition, the “ITGA9 mRNA level reduction” value in data set [4] is given as 20%.

In the case of “miR-152: human pre-miR-152 (Ambion) transfected into fibroblasts; mature miR-152 SEQ ID No. 2 UCAGUGCAUGACAGAACUUGG (delivered as commercial pre-miR precursor, further chemistry not given here; listed as Homo sapiens)”, the “percentage of BrdU positive primary human fibroblasts” value in data set [3] was found to be 18%. In addition, in data set [4], the “ITGA9 mRNA level reduction” value is given as 40%. Also, the “ITGA5 mRNA level reduction” value in data set [5] worked out at 30%. Also, the “ITGA5 protein level (Western blot)” value in data set [6] is listed as “significant decrease”.
